For 18 compounds, IC50 and EC50 results are on record in patent US12410160B2 (Gilead Sciences, Inc., priority 2021, dated 2025).

pEC50, pIC50: −log10 of the molar value. Like-named read-outs stand apart in the source and are kept apart here.

Assay [1] has as its target human KHK-C (Homo sapiens (Human), UniProt P50053). The assay can be described thus: KHK Biochemical Assay (IC50), ADP-Glo, KHK-C. The conditions noted are these: average of at least two separate assays. Put shortly:
(§1)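 Luminescent ADP-Glo read-out of ADP made by His-tagged KHK (BL21 (DE3) expression, Ni-NTA). Enzyme and compound sat together 30 min before ATP/fructose addition, then reacted 4 h at RT in Hepes pH 7.4 buffer with KCl, MgCl2, Triton-X. Quench 1 h, detection 1 h.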
(In general: In ADP-Glo the light output rises with the ADP produced.)

Assay [2] addresses human KHK-A (Homo sapiens (Human), UniProt P50053). Put plainly: KHK Biochemical Assay (IC50), ADP-Glo, KHK-A. The settings on record: average of at least two separate assays. An outline of the steps: as §1
In assay [3] the test system is HepG2 cells. The assay can be described thus: F1P Cell-Based Assay (EC50), 13C6-fructose-1-phosphate in HepG2 cells (cell culture medium or 50% human plasma).
In assay [4] the target is KHK-C expressed in NRK-52E cells (Homo sapiens (Human), UniProt P50053). The assay can be described thus: KHK-C Cell-based Assay (EC50), NRK CTG, fructose-mediated ATP-depletion.
Chain of KHK-C expressed in NRK-52E cells (P50053 whole entry): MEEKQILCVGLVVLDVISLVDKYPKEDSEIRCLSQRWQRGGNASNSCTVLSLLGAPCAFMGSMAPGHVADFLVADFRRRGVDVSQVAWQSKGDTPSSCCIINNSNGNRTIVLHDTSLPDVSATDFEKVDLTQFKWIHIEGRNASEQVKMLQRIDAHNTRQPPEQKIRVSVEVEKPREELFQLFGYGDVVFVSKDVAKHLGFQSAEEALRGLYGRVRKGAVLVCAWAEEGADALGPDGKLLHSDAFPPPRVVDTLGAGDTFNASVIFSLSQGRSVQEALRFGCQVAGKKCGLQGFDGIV
Setting [5] is: Homo sapiens, HepG2, HepG2 cells, 50% human plasma, read-out: F1P 50% HP EC50.
Setting [6] is: Homo sapiens, HepG2, read-out: F1P 10% FBS EC50, HepG2 cells, cell culture medium (10% FBS).
The mark [7] stands for this setting: HepG2 cells, 50% human plasma, read-out: F1P 50% HP EC50.
[8] abbreviates: read-out: F1P 10% FBS EC50, HepG2 cells, cell culture medium (10% FBS).
[9] abbreviates: read-out: NRK CTG EC50, NRK-52E cells, Cell-Titer Glo, 25 mM fructose.
Setting [10] is: read-out: NRK CTG EC50, NRK-52E cells, Cell-Titer Glo, 25 mM fructose, 48 hours.

Chain of human KHK-C (P50053 whole entry): as above
Chain of human KHK-A (P50053 other isoform, or with tags, fused parts or gaps): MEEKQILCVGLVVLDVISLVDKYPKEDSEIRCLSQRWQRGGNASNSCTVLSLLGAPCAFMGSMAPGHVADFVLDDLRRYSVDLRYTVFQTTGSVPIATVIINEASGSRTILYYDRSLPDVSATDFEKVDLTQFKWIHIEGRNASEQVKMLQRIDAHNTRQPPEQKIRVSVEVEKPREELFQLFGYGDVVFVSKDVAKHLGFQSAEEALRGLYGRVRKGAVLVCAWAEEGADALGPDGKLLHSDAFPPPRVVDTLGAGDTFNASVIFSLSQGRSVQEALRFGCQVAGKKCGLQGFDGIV

A word on the pIC50: it is the negative decadic logarithm of the IC50, by convention in mol/L. High values mean a low IC50, low ones a high IC50. The term pEC50 denotes −log10 of the EC50, conventionally taken in molar units. In the case of `COc1ccc(-c2nc(N3C[C@@H](O)[C@@H]3C)nc3c2CCC3(F)F)cc1[S@](C)(=N)=O` (single isomer, unassigned) [Example 496], the pIC50 was 8.12 in assay [1] and 7.84 in assay [2]. The pEC50 in assay [3] (setting [5]) was 7.62; in assay [3] (setting [6]), 8.05; in assay [4], 7.18.

On to `C[C@H]1[C@H](O)CN1c1nc(-c2ccc(OC(F)F)c([S@@](C)(=N)=O)c2)c2c(n1)C(F)(F)CC2` (single isomer, unassigned) [Example 533], for which the pIC50 in assay [1] is 8.42; in assay [2] it was 8.36. Also, the pEC50 was 8.05 in assay [3] (setting [5]), 8.14 in assay [3] (setting [6]) and 7.74 in assay [4].

For `C[C@H]1[C@H](O)CN1c1nc(-c2ccc3c(c2)CC[C@@]32COCC(=O)N2)c2c(n1)C(F)(F)CC2` (single isomer, unassigned) [Example 549], the pIC50 in assay [1] is 10.00; in assay [2], 8.27. Besides, the figures for the negative logarithm of the EC50 (pEC50) in assay [3] (setting [5]), in assay [3] (setting [6]) and in assay [4] were 7.76, 8.27 and 8.42, respectively.

In the case of `C[C@H]1[C@H](O)CN1c1nc(-c2ccc3c(c2)COC[C@@]32COC(=O)N2)c2c(n1)C(F)(F)CC2` (single isomer, unassigned) [Example 555], the pIC50 was 8.92 in assay [1] and 7.52 in assay [2]. For the same compound, the negative-log EC50 (pEC50) in assay [3] (setting [7]) was 6.93; in assay [3] (setting [8]) it was 7.22; in assay [4] (setting [9]), 7.54.

In the case of `C[C@H]1[C@H](O)CN1c1nc(-c2ccc3c(c2)COC[C@]32COC(=O)N2)c2c(n1)C(F)(F)CC2` (single isomer, unassigned) [Example 556], the results for the pIC50 in assay [1] and in assay [2] were 7.58 and 7.38, respectively. Further, the pEC50 is under 6.30 in assay [3] (setting [5]), 6.68 in assay [3] (setting [6]) and 6.70 in assay [4].

In the case of `CC1OC[C@@]2(COc3cc(-c4nc(N5C[C@@H](O)[C@@H]5C)nc5c4CCC5(F)F)ccc32)NC1=O` (single isomer, unassigned) [Example 559], the results for the pIC50 in assay [1] and in assay [2] were 9.70 and 8.11, respectively. The pEC50 was 7.79 in assay [3] (setting [7]), 8.25 in assay [3] (setting [8]) and 8.49 in assay [4] (setting [9]).

On to `CCN1C(=O)N[C@]2(COc3cc(-c4nc(N5C[C@@H](O)[C@@H]5C)nc5c4CCC5(F)F)ccc32)C1=O` (single isomer, unassigned) [Example 697], for which the results for the negative-log IC50 (pIC50) in assay [1] and in assay [2] were 10.00 and 8.07, respectively. For the same compound, the pEC50 in assay [3] (setting [5]) is 7.63; in assay [3] (setting [6]), 7.70; in assay [4] it was 8.43.

With `CCN1C(=O)N[C@@]2(COc3cc(-c4nc(N5C[C@@H](O)[C@@H]5C)nc5c4CCC5(F)F)ccc32)C1=O` (single isomer, unassigned) [Example 698], the pIC50 in assay [1] was 8.25; in assay [2], 7.32. Further, the results for the pEC50 in assay [3] (setting [7]), in assay [3] (setting [8]) and in assay [4] (setting [9]) were 6.57, 6.82 and 7.15, respectively.

Consider `C[C@H]1[C@H](O)CN1c1nc(-c2ccc3c(c2)[S@](=N)(=O)CCO3)c2c(n1)C(F)(F)CC2` (single isomer, unassigned) [Example 820], for which the pIC50 in assay [1] (ADP-Glo) was 8.21; in assay [2] (ADP-Glo), 7.84. Moreover, the results for the negative-log EC50 (pEC50) in assay [3] (setting [7]), in assay [3] (setting [8]) and in assay [4] (setting [10]) were 7.17, 7.69 and 7.58, respectively.

Regarding `C[C@H]1[C@H](O)CN1c1nc(-c2cnc3c(c2)OC[C@@H]3NS(C)(=O)=O)c2c(n1)C(F)(F)CC2` (single isomer, unassigned) [Example 823], the figures for the pIC50 in assay [1] (ADP-Glo) and in assay [2] (ADP-Glo) were 8.19 and 7.32, respectively. The figures for the pEC50 in assay [3] (setting [7]), in assay [3] (setting [8]) and in assay [4] (setting [10]) were 6.66, 7.04 and 7.25, respectively.

On to `C[C@H]1[C@H](O)CN1c1nc(-c2ccc3c(c2)OC[C@@]32NC(=O)N(C)C2=O)c2c(n1)C(F)(F)CC2` (single isomer, unassigned) [Example 826], for which the pIC50 was 9.52 in assay [1] (ADP-Glo) and 7.91 in assay [2] (ADP-Glo). The pEC50 in assay [3] (setting [5]) is 7.77; in assay [3] (setting [6]) it was 7.80; in assay [4], 8.38.

In the case of `C[C@H]1CCN1c1nc(-c2ccc(C3(N)COC3)cc2)c2c(n1)C(F)(F)CC2` [Example 160, (S)-3-(4-(7,7-difluoro-2-(2-methylazetidin-1-yl)-6,7-dihydro-5H-cyclopenta[d]pyrimidin-4-yl)phenyl)oxetan-3-amine], the pIC50 in assay [1] (ADP-Glo) was 9.05; in assay [2] (ADP-Glo), 8.34. Moreover, the pEC50 is 7.87 in assay [3] (setting [5]), 8.32 in assay [3] (setting [6]) and 8.70 in assay [4].

For `C[C@H]1CCN1c1nc2c(c(-c3ccc(C4(N)CCC4)cc3)n1)CCC2` [Example 312, (S)-1-(4-(2-(2-methylazetidin-1-yl)-6,7-dihydro-5H-cyclopenta[d]pyrimidin-4-yl)phenyl)cyclobutan-1-amine], the values for the pIC50 in assay [1] (ADP-Glo) and in assay [2] (ADP-Glo) were 9.05 and 8.92, respectively. Moreover, the pEC50 was 8.03 in assay [3] (setting [5]), 8.41 in assay [3] (setting [6]) and 8.68 in assay [4].

In turn, `C[C@H]1CCN1c1nc(-c2ccc([C@@H](N)C(F)F)cc2)c2c(n1)C(F)(F)CC2` [Example 649, (1R)-1-[4-[7,7-difluoro-2-[(2S)-2-methylazetidin-1-yl]-5,6-dihydrocyclopenta[d]pyrimidin-4-yl]phenyl]-2,2-difluoro-ethanamine] gave a pIC50 in assay [1] of 8.62. The pEC50 is 7.24 in assay [3] (setting [5]), 7.89 in assay [3] (setting [6]) and 8.07 in assay [4].

On to `C[C@H]1[C@H](O)CN1c1nc(-c2ccc3c(c2)OCCC3NS(C)(=O)=O)c2c(n1)C(F)(F)CC2` (stereo partly drawn) [Example 757, N-[7-[7,7-difluoro-2-[(2S,3R)-3-hydroxy-2-methyl-azetidin-1-yl]-5,6-dihydrocyclopenta[d]pyrimidin-4-yl]chroman-4-yl]methanesulfonamide], for which the pIC50 in assay [1] was 8.59. Moreover, the values for the pEC50 in assay [3] (setting [5]), in assay [3] (setting [6]) and in assay [4] were 7.22, 7.69 and 7.49, respectively.

As for `C[C@H]1CCN1c1nc(-c2ccc3c(c2)OCC3NS(C)(=O)=O)c2c(n1)C(F)(F)CC2` (stereo partly drawn) [Example 758, N-[6-[7,7-difluoro-2-[(2S)-2-methylazetidin-1-yl]-5,6-dihydrocyclopenta[d]pyrimidin-4-yl]-2,3-dihydrobenzofuran-3-yl]methanesulfonamide], in assay [1], the negative-log IC50 (pIC50) was 9.30. Besides, the values for the negative logarithm of the EC50 (pEC50) in assay [3] (setting [5]), in assay [3] (setting [6]) and in assay [4] were 7.39, 8.19 and 8.66, respectively.

Turning to `C[C@H]1[C@H](O)CN1c1nc(-c2cc3c(c(CNS(C)(=O)=O)c2)OCC3)c2c(n1)C(F)(F)CC2` [Example 761, N-[[5-[7,7-difluoro-2-[(2S,3R)-3-hydroxy-2-methyl-azetidin-1-yl]-5,6-dihydrocyclopenta[d]pyrimidin-4-yl]-2,3-dihydrobenzofuran-7-yl]methyl]methanesulfonamide], in assay [1], the pIC50 was 8.48. Moreover, the results for the pEC50 in assay [3] (setting [5]), in assay [3] (setting [6]) and in assay [4] were 6.89, 7.55 and 7.56, respectively.

For `C[C@H]1[C@H](O)CN1c1nc(-c2ccc3c(c2)O[C@@H](CO)CNC3=O)c2c(n1)C(F)(F)CC2` [Example 808, (R)-8-(7,7-difluoro-2-((2S,3R)-3-hydroxy-2-methylazetidin-1-yl)-6,7-dihydro-5H-cyclopenta[d]pyrimidin-4-yl)-2-(hydroxymethyl)-3,4-dihydrobenzo[f][1,4]oxazepin-5(2H)-one], in assay [1] (ADP-Glo), the pIC50 is 8.20. Moreover, the pEC50 in assay [3] (setting [5]) is 7.38; in assay [3] (setting [6]) it was 7.41; in assay [4], 6.16.
